Data from patent US11419843B2, “Small molecule BCL-2 functional converters as cancer therapeutics” (Oregon State University, priority 2016, dated 2022).
Entries after “also recorded” stand apart in the source; their conditions may differ.

Tests used:
Type in all cases: cell-based, human
[1] = system: Bcl-2 low and high expressing Jurkat lymphoma cells (Jurkat/Vector, Jurkat/Bcl-2); assay: Cell viability in Bcl-2 low and high expressing Jurkat cells; details: for Effect of Bcl-2 expression on Jurkat cells exposed to cancer therapeutics: Jurkat cells with high and low expression of Bcl-2 (FIG. 9G); for Bcl-2 dependent effects in Jurkat Lymphoma cells: Bcl-2 low and high expressing Jurkat lymphoma cells treated for 72 hours with various concentrations; for minimal effective concentration: Homo sapiens, Jurkat lymphoma cells, 72 hours, n/d means no reduction was detected at concentrations tested, read-out: Lowest effective dose (minimal effective concentration that induced Bcl-2-dependent reduction in cell viability)
[2] = system: H460 parental and derived paclitaxel resistant cells; assay: Viability of H460 parental and paclitaxel resistant cells
Method: Percentage viability relative to vehicle treatment was calculated. Representative of three independent assays conducted in triplicate.
FIG. […] Percentage viability relative to vehicle treatment. Representative of three independent assays conducted in triplicate.
Representative of three independent assays conducted in triplicate.
Cell lines were obtained from ATCC and maintained according to manufacturer's instructions. The human lung cancer cell line NCI-H460, H69AR (ATCC) were cultured in RPMI medium (Corning) containing 10% FBS. The human breast cancer cell line MDA-MB-231 was cultured in DMEM medium (Corning) containing 10% FBS. All cell lines were maintained at 5% CO2 and 37° C. Paclitaxel resistant H460 cells were derived by treating cells once a week over 6 weeks, initially with 1 nM paclitaxel and then increasing dose incrementally up to 100 nM. Once resistance was confirmed, paclitaxel was withdrawn from the cells. Resistance to paclitaxel was maintained without presence of paclitaxel measured up to 2 months. A parental line was maintained for a similar number of passages as the resistant line. All experiments were performed using cells that had not been treated with paclitaxel in at least three passages.
Cells of interest were plated at 2000 cells per well in 96-well black tissue culture plate and allowed to adhere to the plate overnight. Viability assays were performed using 10% serum medium unless otherwise stated. Drugs were diluted in supplemented tissue culture medium and added at increasing concentrations, with DMSO as a vehicle control. […] Luminescence was measured using Tropix TR717 Microplate luminometer. Percentage of viable cells is relative to vehicle (100%). As a complementary viability assay, eBioscience Fixable Viability Dye eFluor 660(65-0864) was used to stain dead cells and analyzed using flow cytometry.

[3] = system: MDA-MB-468 parental and derived paclitaxel or doxorubicin resistant cells; assay: Viability of MDA-MB-468 parental and derived resistant cells; details: 72 hours
Method: Percentage viability relative to vehicle treatment. Representative of three independent assays in triplicate.
Percentage viability relative to vehicle treatment.
Percentage viability relative to vehicle treatment. Representative of three independent assays conducted in triplicate.
Cells of interest were plated at 2000 cells per well in 96-well black tissue culture plate and allowed to adhere to the plate overnight. Viability assays were performed using 10% serum medium unless otherwise stated. Drugs were diluted in supplemented tissue culture medium and added at increasing concentrations, with DMSO as a vehicle control. Cells were then incubated for either 48 hour or 72 hours in presence of the compound, Promega Titer Glo was added to the wells at the assay end point according to manufacturer's protocol. Luminescence was measured using Tropix TR717 Microplate luminometer. Percentage of viable cells is relative to vehicle (100%). As a complementary viability assay, eBioscience Fixable Viability Dye eFluor 660(65-0864) was used to stain dead cells and analyzed using flow cytometry.

[4] = system: MDA-MB-231/Vector and MDA-MB-231/Bcl-2 cells; assay: Viability screening assay in MDA-MB-231 cells with high and low Bcl-2 (CellTiter Glo); details: for Bcl-2 selective reduction in viability, MDA-MB-231/Bcl-2 vs MDA-MB-231/Vector: 10 μM, 24 h, 10% serum
Method: In one example, a triple negative breast cancer cell line, MDA-MB-231, was used for screening these libraries. […] At the end of the assay, cell viability was determined using the cell titer Glo assay. […] A hit was defined as a compound inducing more than 20% reduction in viability of MDA-MB-231/Bcl-2 cells, compared to vector controls (MDA-MB-231/Vector). In the next step these shortlisted small molecules were tested for their ability to convert the conformation of Bcl-2 into a pro-apoptotic one.
To screen for Bcl-2 selective compounds, MDA-MB-231 cells (MDA-MB-231/Vector and MDA-MB-231/Bcl-2) were plated at 4000 cells per well in a 96 well black opaque plate. The day after plating the cells, treatment from the library plates was done so as to add 1 μL of the compound into the cells, resulting in 10 μM concentration. For non-specific […], 25 nM of staurosporin was used. […] Post treatment viability was assessed by CellTiter Glo Cell Viability assay (Promega Inc., Madison, Wis.) as per manufacturer instructions.
Viability for test compounds in each cell line (MDA-MB-231/Vector and MDA-MB-231/Bcl-2) was normalized to their respective vehicle treatments. Compounds that had at least 20% less viability in the MDA-MB-231/Bcl-2 cell line than the MDA-MB-231/Vector cell line were selected as initial hits and shortlisted for revalidation. Revalidated compounds were reordered for further testing and characterization. All data analyses were performed using Microsoft Excel.

[5] = system: H460 parental and resistant cells; assay: Colony formation (2D clonogenic, 3D soft agar) of H460 parental and resistant cells; details: 10 nM paclitaxel, continuously for 14 days
From the text: Colony forming ability (%) relative to vehicle treatment. Representative of three independent conducted assays in triplicate.

[6] = system: H460 parental and resistant cells; assay: Annexin-V apoptosis assay in H460 parental and resistant cells; details: 10 nM paclitaxel, 48 hours
Method: FIG. 25E is the results of Annexin-V apoptosis assay in H460 cells treated for 48 hours with vehicle or paclitaxel 10 nM, quantification right panel.
Cells were seeded into 6 well tissue culture plates to give approximately 50% confluence and allowed to attach overnight. The cells were then treated for a period of time indicated in figure legend with the appropriate compound at various concentrations (see figure legends). An Annexin V-conjugate PerCP-eFluor 710 apoptosis detection kit was used as described by the manufacturer's protocol (eBioscience 88-8008). Harvesting of cells included collection of floating and attached cells following trypsinization. Data were acquired using an CytoFLEX S flow cytometer (Beckman Coulter, Brea, Calif.) and 10,000 events on the PC5.5 channel were analyzed using CytExpert software (Beckman Coulter). For Nur77 GFP tagged annexin V analysis, GFP positive population were selected and then Annexin V+population was determined. For each sample, 10,000 GFP+ events were collected. Annexin V positive cell population was considered to be the apoptotic population, and the percent of annexin V positive cell population was used to determine the extent of apoptosis.

Compound	Bcl-2 dependent effects in Jurkat Lymphoma cells [1]	minimal effective concentration [1] [µM]	other results
CS(=O)(=O)CCNCc1ccc(-c2ccc3ncnc(Nc4ccc(OCc5cccc(F)c5)c(Cl)c4)c3c2)o1 [lapatinib, reference compound]	–	–	Effect of Bcl-2 expression on Jurkat cells exposed to cancer therapeutics [1]: Bcl-2 expression protected Jurkat cells
CN(Cc1cnc2nc(N)nc(N)c2n1)c1c(Cl)cc(C(=O)N[C@@H](CCC(=O)O)C(=O)O)cc1Cl [Compound 2]	Yes	0.001	–
O=P1(N(CCCl)CCCl)NCCCO1 (centres unmarked) [cyclophosphamide, reference compound]	–	–	Effect of Bcl-2 expression on Jurkat cells exposed to cancer therapeutics [1]: Bcl-2 expression protected Jurkat cells
Cc1cc(C(=O)O)cc(C)c1N(C)Cc1cnc2nc(N)nc(N)c2n1 [Compound 7]	No	–	–
Nc1nc(N)c2nc(CC3CCCc4cc(C(=O)N[C@@H](CCC(=O)O)C(=O)O)ccc43)cnc2n1 (some centres unmarked) [Compound 10]	Yes	0.1	–
COc1cccc2c1C(=O)c1c(O)c3c(c(O)c1C2=O)C[C@@](O)(C(=O)CO)C[C@@H]3O[C@H]1C[C@H](N)[C@H](O)[C@H](C)O1 [doxorubicin, reference compound]	–	–	Effect of Bcl-2 expression on Jurkat cells exposed to cancer therapeutics [1]: Bcl-2 expression protected Jurkat cells; Susceptibility of H460 paclitaxel resistant line (cross resistance) ([2]; viability assays and colony formation assays): paclitaxel resistant line was also less susceptible to doxorubicin treatment; Cross-resistance of MDA-MB-468 paclitaxel-resistant line [3]: cross-resistant
CC(Nc1ccc(C(=O)N[C@@H](CCC(=O)O)C(=O)O)cc1)c1cnc2nc(N)nc(O)c2n1 (some centres unmarked) [Compound 4]	No	–	–
O=c1[nH]cc(F)c(=O)[nH]1 [5-fluoro uracil, reference compound]	–	–	Effect of Bcl-2 expression on Jurkat cells exposed to cancer therapeutics [1]: Bcl-2 expression protected Jurkat cells; Cross-resistance of MDA-MB-468 paclitaxel-resistant line [3]: cross-resistant
C=CCN(Cc1cnc2nc(N)nc(N)c2n1)c1ccc(C(=O)N[C@@H](CCC(=O)O)C(=O)O)cc1 [Compound 8]	Yes	0.01	–
Nc1nc(N)c2nc3c(nc2n1)C(=O)N(c1ccc(C(=O)O)cc1)C3 [Compound 12]	No	–	–
2-Iodo acetamide [Iodoacetamide, reference compound]	–	–	Bcl-2 selective reduction in viability, MDA-MB-231/Bcl-2 vs MDA-MB-231/Vector [4]: selectively induce more cell death in high-Bcl-2 expressing MDA-MB-231 cells
CC(=O)O[C@H]1C(=O)[C@@]2(C)[C@H]([C@H](OC(=O)c3ccccc3)[C@]3(O)C[C@H](OC(=O)[C@H](O)[C@@H](NC(=O)c4ccccc4)c4ccccc4)C(C)=C1C3(C)C)[C@]1(OC(C)=O)CO[C@@H]1C[C@@H]2O [paclitaxel, reference compound]	–	–	Viability of MDA-MB-231 cells expressing pcDNA vector or Bcl-2 ([4]; paclitaxel 10 nM): reduced viability of MDA-MB-231 cells transfected with pcDNA vector, while Bcl-2 transfected MDA-MB-231 cells were partially resistant; Reduction of viability of H460 parental cells ([2]; paclitaxel, 72 hours): 90%; Viability of H460 paclitaxel resistant line ([2]; paclitaxel, 72 hours): unaffected; Colony formation in 2D and 3D soft agar assays, H460 parental and resistant [5]: inhibited the parental cells ability to form colonies in 2D and 3D soft agar assays, while resistant lines tumorigenicity was unchanged; Induction of apoptosis (Annexin V), H460 resistant vs parental [6]: minimal induction of apoptosis in the derived H460 resistant line compared to parental sensitive line; Viability of MDA-MB-468 parental and paclitaxel resistant lines ([3]; paclitaxel): derived resistant line viability was unaffected by 50 nM, however parental line was sensitive
COc1ccc([N+](=O)[O-])cc1CSc1nc2sc3c(c2c(=O)n1-c1ccccc1)CCCC3 [BFC1111, 2-[(2-methoxy-5-nitrobenzyl)thio]-3-phenyl-5,6,7,8-tetrahydro[1] benzothieno[2,3-d]pyrimidin-4(3H)-one]	–	–	Bcl-2 selective reduction in viability, MDA-MB-231/Bcl-2 vs MDA-MB-231/Vector ([4]; listed as BFC1110-A): good Bcl-2 dependent effects in MDA-MB-231 cells; also recorded: comparable Bcl-2 selective induction of cell death as the parent BFC1110; Viability of H460 resistant vs parental line ([2]; 72 hours): reduced viability of resistant line preferentially
CN(Cc1cnc2nc(N)nc(N)c2n1)c1c(F)cc(C(=O)N[C@@H](CCC(=O)O)C(=O)O)cc1F [Compound 6]	Yes	0.01	–
Nc1nc(N)c2nc(CNc3ccc(C(=O)N[C@@H](CCC(=O)O)C(=O)O)cc3)cnc2n1 [Compound 1]	Yes	0.01	–
Nc1nc(N)c2nc(CNc3ccc(C(=O)N[C@@H](CC(=O)O)C(=O)O)cc3)cnc2n1 [Compound 3]	Yes	10	–
CN(Cc1cnc2nc(N)nc(N)c2n1)c1ccc(C(=O)N[C@@H](CCC(=O)O)C(=O)O)c2ccccc12 [Compound 11]	Yes	0.001	–
CN(Cc1cnc2nc(N)nc(N)c2n1)c1ccc(C(=O)N[C@@H](CCC(=O)O)C(=O)O)cc1F [Compound 5]	Yes	0.01	–
CN(Cc1cnc2nc(N)nc(N)c2n1)c1cc(Cl)c(C(=O)N[C@@H](CCC(=O)O)C(=O)O)c(Cl)c1 [Compound 9]	Yes	1	–
Nc1ccn([C@@H]2O[C@H](CO)[C@@H](O)C2(F)F)c(=O)n1 [gemcitabine, reference compound]	–	–	Effect of Bcl-2 expression on Jurkat cells exposed to cancer therapeutics [1]: Bcl-2 expression protected Jurkat cells
